Calls of active or inactive are those of the source. No cut-off for these calls is given here.
How the values were obtained:
HCT-116 = assay: Cytotoxicity against human HCT116 cells assessed as inhibition of cell growth at 10 and 30 uM preincubated for 3 hrs followed irradiation at 400 - 430 nm for 1, 3 and 10 min measured after 48 hrs by CellTiter-Glo assay; format: functional, cell-based
[1] = molecular target: T1, Histone deacetylase (Homo sapiens) (UniProt Q13547+O15379+Q9UBN7+Q92769+Q9UQL6+Q8WUI4+Q9BY41+Q96DB2+P56524+Q9UKV0+Q969S8); assay: Inhibition of human HDAC in HeLa cell nuclear extract in presence of irradiation at 400 to 430 nm for 1 to 10 mins incubated for 60 mins by HDAC-Glo 1/2 reagent based chemiluminescence analysis; format: cell-free
[2] = molecular target: T1, Histone deacetylase (Homo sapiens); assay: Inhibition of human HDAC in HeLa cell nuclear extract for 60 mins by HDAC-Glo 1/2 reagent based chemiluminescence analysis; format: cell-free
[3] = Prodrug conversion in tris buffer assessed as suberoyl anilide hydroxamic acid formation at 200 uM followed 400 to 430 nm irradiation for 10 mins by HPLC analysis; format: ADME

SMILES: CCN(CC)c1ccc2c(CONC(=O)CCCCCCC(=O)Nc3ccccc3)cc(=O)oc2c1
- Activity (HCT-116): Active
- inhibition [1]: Active
- inhibition [2]: inactive
- Drug metabolism [3]: 54 µM

Source: ChEMBL document CHEMBL3797156, “(7-Diethylaminocoumarin-4-yl)methyl ester of suberoylanilide hydroxamic acid as a caged inhibitor for photocontrol of histone deacetylase activity” (Bioorg Med Chem, 2016)
